# Measured values: ChEMBL document CHEMBL1150033, “The squalestatins: effects of changes at the allylic centre in the C1 sidechain” (Bioorg Med Chem Lett, 1994)
# Columns and labels:
# Squalene synthase = biological target: T1, Squalene synthase (Rattus norvegicus, UniProt Q02769); experiment: Inhibitory concentration against mammalian Squalene synthase
# T1 sequence (Q02769 whole entry): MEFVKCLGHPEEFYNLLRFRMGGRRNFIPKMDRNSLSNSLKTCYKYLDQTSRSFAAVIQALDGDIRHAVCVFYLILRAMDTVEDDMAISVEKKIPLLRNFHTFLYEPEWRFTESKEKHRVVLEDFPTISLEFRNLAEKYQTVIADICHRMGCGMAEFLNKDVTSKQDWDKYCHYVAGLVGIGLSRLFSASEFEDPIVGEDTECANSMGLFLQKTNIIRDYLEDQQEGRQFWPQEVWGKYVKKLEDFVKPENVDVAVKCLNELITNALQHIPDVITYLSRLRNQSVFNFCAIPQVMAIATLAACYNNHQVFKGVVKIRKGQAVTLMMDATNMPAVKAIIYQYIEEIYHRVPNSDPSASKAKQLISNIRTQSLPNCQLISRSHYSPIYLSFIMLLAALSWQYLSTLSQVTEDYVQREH
# [1] = Lipid lowering ability after intravenous administration of 10 mg/Kg single dose; format: functional
# [2] = Percent decrease in serum cholesterol levels after intravenous administration of 1 mg/Kg dose for 7 days; format: functional
# [3] = Effective dose required for lipid lowering property in marmosets by oral administration for 7 days; format: functional; details: 168 h
IC50 (Squalene synthase) [nM],Compound,also measured
532,C=C(CC[C@]12O[C@H](C(=O)O)[C@@](O)(C(=O)O)[C@](C(=O)O)(O1)[C@H](O)[C@H]2O)[C@@H](OC(=O)c1ccccc1)[C@H](C)Cc1ccccc1,
,C=C(CC[C@]12O[C@H](C(=O)O)[C@@](O)(C(=O)O)[C@](C(=O)O)(O1)[C@H](O)[C@H]2O)[C@@H](OC(C)=O)[C@H](C)Cc1ccccc1,Lowering [1]: 30%
> 10000,CC(=O)NC/C(=C\[C@@H](C)Cc1ccccc1)CC[C@]12O[C@H](C(=O)O)[C@@](O)(C(=O)O)[C@](C(=O)O)(O1)[C@H](O)[C@H]2O,
40,C=C(CC[C@]12O[C@H](C(=O)O)[C@@](O)(C(=O)O)[C@](C(=O)O)(O1)[C@H](O)[C@H]2O)[C@@H](OCC)[C@H](C)Cc1ccccc1,
> 10000,CC(=O)NC/C(=C\[C@H](C)Cc1ccccc1)CC[C@]12O[C@H](C(=O)O)[C@@](O)(C(=O)O)[C@](C(=O)O)(O1)[C@H](O)[C@H]2O,
500,C=C(CC[C@]12O[C@H](C(=O)O)[C@@](O)(C(=O)O)[C@](C(=O)O)(O1)[C@H](O)[C@H]2O)[C@@H](OC)[C@H](C)Cc1ccccc1,
1200,C#CCO[C@H](C(=C)CC[C@]12O[C@H](C(=O)O)[C@@](O)(C(=O)O)[C@](C(=O)O)(O1)[C@H](O)[C@H]2O)[C@H](C)Cc1ccccc1,
33,C=C(CC[C@]12O[C@H](C(=O)O)[C@@](O)(C(=O)O)[C@](C(=O)O)(O1)[C@H](O)[C@H]2O)[C@@H](OCC1CC1)[C@H](C)Cc1ccccc1,
2220,C=C(CC[C@]12O[C@H](C(=O)O)[C@@](O)(C(=O)O)[C@](C(=O)O)(O1)[C@H](O)[C@H]2O)[C@@H](NC(C)=O)[C@H](C)Cc1ccccc1,
49,C=C(CC[C@]12O[C@H](C(=O)O)[C@@](O)(C(=O)O)[C@](C(=O)O)(O1)[C@H](O)[C@H]2O)[C@@H](OC(C)C)[C@H](C)Cc1ccccc1,
600,C=C(CC[C@]12O[C@H](C(=O)O)[C@@](O)(C(=O)O)[C@](C(=O)O)(O1)[C@H](O)[C@H]2O)[C@@H](OCCC)[C@H](C)Cc1ccccc1,
252,C=C(CC[C@]12O[C@H](C(=O)O)[C@@](O)(C(=O)O)[C@](C(=O)O)(O1)[C@H](O)[C@H]2O)[C@@H](O)[C@H](C)Cc1ccccc1,
2290,C=C(CC[C@]12O[C@H](C(=O)O)[C@@](O)(C(=O)O)[C@](C(=O)O)(O1)[C@H](O)[C@H]2O)[C@@H](OC(=O)C(C)(C)C)[C@H](C)Cc1ccccc1,
27,C=CCO[C@H](C(=C)CC[C@]12O[C@H](C(=O)O)[C@@](O)(C(=O)O)[C@](C(=O)O)(O1)[C@H](O)[C@H]2O)[C@H](C)Cc1ccccc1,
1420,C=C(CC[C@]12O[C@H](C(=O)O)[C@@](O)(C(=O)O)[C@](C(=O)O)(O1)[C@H](O)[C@H]2O)[C@@H](OCc1ccccc1)[C@H](C)Cc1ccccc1,
> 10000,C=C(CC[C@]12O[C@H](C(=O)O)[C@@](O)(C(=O)O)[C@](C(=O)O)(O1)[C@H](O)[C@H]2O)[C@H](NC(C)=O)[C@H](C)Cc1ccccc1,
5,C=C(CC[C@]12O[C@H](C(=O)O)[C@@](O)(C(=O)O)[C@](C(=O)O)(O1)[C@H](OC(=O)/C=C/[C@@H](C)C[C@@H](C)CC)[C@H]2O)[C@@H](O)[C@H](C)Cc1ccccc1,
,C=C(CC[C@]12O[C@H](C(=O)O)[C@@](O)(C(=O)O)[C@](C(=O)O)(O1)[C@H](OC(=O)/C=C/[C@@H](C)C[C@@H](C)CC)[C@H]2O)[C@@H](OC(C)=O)[C@H](C)Cc1ccccc1 [ZARAGOZIC ACIDS A],Decrease [2]: 60%; ED50 [3]: 10 mg/kg/day
